Measured values published in patent publication US20140148432A1, “Compounds for the Treatment of Neurological Disorders” (priority 2009, published 2014).
Read-outs that look alike come from different tables or passages of the source.

Assays:
GluN1/GluN2B receptors [1] = target: GluN1/GluN2B receptors (Homo sapiens, UniProt Q05586+Q13224); experiment: IC50 of GluN1/GluN2B receptors expressed in Xenopus oocytes (two electrode voltage-clamp), human; type: cell-based; conditions: for Human pH Boost Ratio (IC50 pH 7.6/IC50 pH 6.9): IC50 at pH 7.6 divided by IC50 at pH 6.9; for IC50: 30 μM glycine
GluN1/GluN2B receptors (Homo sapiens, UniProt Q05586+Q13224), sequence (Q13224 27-1484, other chains not shown): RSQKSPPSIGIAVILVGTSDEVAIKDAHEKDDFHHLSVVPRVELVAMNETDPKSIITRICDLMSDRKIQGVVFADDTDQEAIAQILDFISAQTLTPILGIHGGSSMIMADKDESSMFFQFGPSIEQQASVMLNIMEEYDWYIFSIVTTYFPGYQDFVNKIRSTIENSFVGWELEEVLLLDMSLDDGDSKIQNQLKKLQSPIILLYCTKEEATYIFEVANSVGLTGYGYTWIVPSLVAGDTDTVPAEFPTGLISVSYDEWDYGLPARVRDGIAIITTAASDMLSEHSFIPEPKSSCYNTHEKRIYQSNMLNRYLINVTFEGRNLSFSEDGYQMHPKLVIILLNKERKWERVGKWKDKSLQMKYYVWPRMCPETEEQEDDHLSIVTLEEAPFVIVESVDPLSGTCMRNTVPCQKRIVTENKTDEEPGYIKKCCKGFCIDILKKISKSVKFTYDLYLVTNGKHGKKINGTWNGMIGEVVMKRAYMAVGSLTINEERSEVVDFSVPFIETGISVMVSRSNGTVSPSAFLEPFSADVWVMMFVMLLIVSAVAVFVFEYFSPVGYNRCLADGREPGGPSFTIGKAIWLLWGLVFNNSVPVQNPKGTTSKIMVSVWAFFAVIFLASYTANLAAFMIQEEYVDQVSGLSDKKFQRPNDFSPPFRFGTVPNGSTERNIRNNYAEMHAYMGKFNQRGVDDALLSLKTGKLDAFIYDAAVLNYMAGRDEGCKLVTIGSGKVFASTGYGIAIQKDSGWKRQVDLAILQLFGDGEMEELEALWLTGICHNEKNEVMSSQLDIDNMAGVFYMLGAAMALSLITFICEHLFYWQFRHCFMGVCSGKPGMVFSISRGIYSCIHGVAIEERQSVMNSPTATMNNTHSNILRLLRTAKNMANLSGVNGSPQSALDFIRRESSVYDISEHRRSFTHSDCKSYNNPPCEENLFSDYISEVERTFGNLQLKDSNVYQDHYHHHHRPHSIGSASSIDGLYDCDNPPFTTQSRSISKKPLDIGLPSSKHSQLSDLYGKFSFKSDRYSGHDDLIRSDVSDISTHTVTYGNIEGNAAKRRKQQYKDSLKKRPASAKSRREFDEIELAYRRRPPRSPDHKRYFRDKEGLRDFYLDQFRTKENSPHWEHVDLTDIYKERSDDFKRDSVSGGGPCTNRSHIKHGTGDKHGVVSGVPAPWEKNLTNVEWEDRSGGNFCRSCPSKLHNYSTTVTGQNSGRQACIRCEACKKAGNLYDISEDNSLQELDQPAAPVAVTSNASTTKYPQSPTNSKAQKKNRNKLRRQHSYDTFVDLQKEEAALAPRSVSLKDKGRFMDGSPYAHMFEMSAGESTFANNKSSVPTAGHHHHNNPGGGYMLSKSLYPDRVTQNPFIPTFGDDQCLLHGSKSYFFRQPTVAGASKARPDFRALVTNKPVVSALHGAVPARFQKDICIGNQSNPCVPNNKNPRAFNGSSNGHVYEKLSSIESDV

GluN1/GluN2B receptors [2] = target: GluN1/GluN2B receptors (Rattus norvegicus, UniProt P35439+Q00960); experiment: IC50 of GluN1/GluN2B receptors expressed in Xenopus oocytes (two electrode voltage-clamp), rat; type: cell-based; conditions: pH 7.4, 50 μM glutamate, 30 μM glycine
GluN1/GluN2B receptors (Rattus norvegicus, UniProt P35439+Q00960), sequence (Q00960 27-1482, other chains not shown): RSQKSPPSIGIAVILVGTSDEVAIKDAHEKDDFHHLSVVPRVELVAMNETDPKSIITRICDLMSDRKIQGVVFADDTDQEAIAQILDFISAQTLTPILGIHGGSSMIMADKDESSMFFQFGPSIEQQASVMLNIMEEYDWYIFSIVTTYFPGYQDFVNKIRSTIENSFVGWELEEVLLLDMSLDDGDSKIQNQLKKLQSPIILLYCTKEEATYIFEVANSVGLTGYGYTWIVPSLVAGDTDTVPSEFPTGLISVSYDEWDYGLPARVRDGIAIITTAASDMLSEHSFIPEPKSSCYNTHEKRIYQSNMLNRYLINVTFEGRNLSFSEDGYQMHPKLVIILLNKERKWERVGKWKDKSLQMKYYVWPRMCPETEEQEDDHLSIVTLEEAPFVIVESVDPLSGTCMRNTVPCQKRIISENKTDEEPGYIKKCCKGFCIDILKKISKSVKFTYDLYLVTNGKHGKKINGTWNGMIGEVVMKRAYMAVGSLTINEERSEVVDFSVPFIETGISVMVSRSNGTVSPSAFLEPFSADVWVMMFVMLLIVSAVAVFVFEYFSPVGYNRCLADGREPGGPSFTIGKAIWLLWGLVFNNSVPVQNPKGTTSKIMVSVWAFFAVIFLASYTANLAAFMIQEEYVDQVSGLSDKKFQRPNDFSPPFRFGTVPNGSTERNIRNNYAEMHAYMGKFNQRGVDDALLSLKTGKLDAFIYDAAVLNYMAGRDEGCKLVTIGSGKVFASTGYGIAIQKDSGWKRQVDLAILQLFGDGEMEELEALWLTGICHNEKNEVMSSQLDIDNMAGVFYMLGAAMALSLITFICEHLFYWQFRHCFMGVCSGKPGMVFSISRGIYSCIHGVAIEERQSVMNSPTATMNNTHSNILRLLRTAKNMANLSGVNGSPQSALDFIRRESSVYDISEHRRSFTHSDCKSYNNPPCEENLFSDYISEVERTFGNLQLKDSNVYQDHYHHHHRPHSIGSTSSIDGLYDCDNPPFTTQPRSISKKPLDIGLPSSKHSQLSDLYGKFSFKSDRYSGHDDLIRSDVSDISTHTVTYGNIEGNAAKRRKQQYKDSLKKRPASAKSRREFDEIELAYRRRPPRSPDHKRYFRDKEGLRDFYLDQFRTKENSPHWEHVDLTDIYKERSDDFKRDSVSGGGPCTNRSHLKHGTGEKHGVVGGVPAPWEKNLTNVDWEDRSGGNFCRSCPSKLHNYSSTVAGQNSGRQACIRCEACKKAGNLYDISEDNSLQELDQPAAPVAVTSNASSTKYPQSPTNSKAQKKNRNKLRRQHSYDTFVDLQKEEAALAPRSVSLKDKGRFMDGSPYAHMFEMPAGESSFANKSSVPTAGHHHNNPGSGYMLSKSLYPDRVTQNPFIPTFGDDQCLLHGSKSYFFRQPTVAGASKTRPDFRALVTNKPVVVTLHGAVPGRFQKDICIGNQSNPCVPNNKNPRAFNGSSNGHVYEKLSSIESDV
Protocol: (§1) Stage V and VI oocytes were surgically removed from the ovaries of large, well-fed and healthy Xenopus laevis anesthetized with 3-amino-benzoic acid ethyl ester (3 gm/l). Clusters of isolated oocytes were incubated with 292 U/ml Worthington (Freehold, N.J.) type IV collagenase or 1.3 mg/ml collagenase (Life Technologies, Gaithersburg, Md.; 17018-029) for 2 hr in Ca^2+-free solution comprised of (in mM) 115 NaCl, 2.5 KCl, and 10 HEPES, pH 7.5, with slow agitation to remove the follicular cell layer. Oocytes were then washed in the same solution supplemented with 1.8 mM CaCl2 and maintained in Barth's solution comprised of (in mM): 88 NaCl, 1 KCl, 2.4 NaHCO3, 10 HEPES, 0.82 MgSO4, 0.33 Ca(NO3)2, and 0.91 CaCl2 and supplemented with 100 μg/ml gentamycin, 10 μg/ml streptomycin, and 10 μg/ml penicillin. Oocytes were manually defolliculated and injected within 24 hrs of isolation with 3-5 ng of GluN1 subunit cRNA and 7-10 ng of GluN2 cRNA subunit in a 50 nl volume, and incubated in Barth's solution at 18° C. for 2-7 d. Glass injection pipettes had tip sizes ranging from 10-20 microns, and were backfilled with mineral oil. cRNA was synthesized from linearized template cDNA for rat glutamate receptor subunits according to manufacturer specifications (Ambion).
(§2) Two electrode voltage-clamp recordings were made 2-7 days post-injection. Oocytes were placed in a dual-track plexiglass recording chamber with a single perfusion line that splits in a Y-configuration to perfuse two oocytes. Dual recordings were made at room temperature (23° C.) using two Warner 00725B two-electrode voltage clamp amplifiers, arranged as recommended by the manufacturer. Glass microelectrodes (1-10 Megaohms) were filled with 300 mM KCl (voltage electrode) or 3 M KCl (current electrode). The bath clamps communicated across silver chloride wires placed into each side of the recording chamber, both of which were assumed to be at a reference potential of 0 mV. Oocytes were perfused with a solution comprised of (in mM) 90 NaCl, 1 KCl, 10 HEPES, […] and 0.5 BaCl2; pH was adjusted by addition of 1-3 M NaOH or HCl. Oocytes were recorded under voltage clamp at −40 mV. Final concentrations for glutamate and glycine were 50 μM and 30 μM, respectively. Concentration-response curves for experimental compounds were obtained by applying in successive fashion maximal glutamate/glycine, followed by glutamate/glycine plus variable concentrations of experimental compounds. Dose response curves consisting of 4 to 8 concentrations were obtained in this manner. The baseline leak current at −40 mV was measured before and after recording, and the full recording linearly corrected for any change in leak current. The level of inhibition by applied experimental compounds was expressed as a percent of the initial glutamate response, and averaged together across oocytes from multiple experiments. Results were pooled, and the average percent responses at antagonist concentrations were fit by the equation,
Percent Response=(100−minimum)/(1+([conc]/IC50)^nH)+minimum
where minimum is the residual percent response in saturating concentration of the experimental compounds, IC50 is the concentration of antagonist that causes half of the achievable inhibition, and nH is a slope factor describing steepness of the inhibition curve. Minimum was constrained to be greater than or equal to 0.
Recordings were made at pH 6.9, pH 7.4, and pH 7.6. The pH Boost ratio calculated by dividing the IC50 measured at pH 7.6 by the IC50 measured at pH 6.9.

[3] = target: T1, human ether-a-go-go potassium channel (hERG) expressed in HEK293 cells (Homo sapiens, UniProt Q12809); experiment: hERG binding, displacement of [3H]-astemizole; conditions: 10 μM test compound, 1.5 nM [3H]-astemizole, duplicate
T1 construct: expressed in transfected cells; host or cells: HEK293 cells
T1 sequence (Q12809 whole entry): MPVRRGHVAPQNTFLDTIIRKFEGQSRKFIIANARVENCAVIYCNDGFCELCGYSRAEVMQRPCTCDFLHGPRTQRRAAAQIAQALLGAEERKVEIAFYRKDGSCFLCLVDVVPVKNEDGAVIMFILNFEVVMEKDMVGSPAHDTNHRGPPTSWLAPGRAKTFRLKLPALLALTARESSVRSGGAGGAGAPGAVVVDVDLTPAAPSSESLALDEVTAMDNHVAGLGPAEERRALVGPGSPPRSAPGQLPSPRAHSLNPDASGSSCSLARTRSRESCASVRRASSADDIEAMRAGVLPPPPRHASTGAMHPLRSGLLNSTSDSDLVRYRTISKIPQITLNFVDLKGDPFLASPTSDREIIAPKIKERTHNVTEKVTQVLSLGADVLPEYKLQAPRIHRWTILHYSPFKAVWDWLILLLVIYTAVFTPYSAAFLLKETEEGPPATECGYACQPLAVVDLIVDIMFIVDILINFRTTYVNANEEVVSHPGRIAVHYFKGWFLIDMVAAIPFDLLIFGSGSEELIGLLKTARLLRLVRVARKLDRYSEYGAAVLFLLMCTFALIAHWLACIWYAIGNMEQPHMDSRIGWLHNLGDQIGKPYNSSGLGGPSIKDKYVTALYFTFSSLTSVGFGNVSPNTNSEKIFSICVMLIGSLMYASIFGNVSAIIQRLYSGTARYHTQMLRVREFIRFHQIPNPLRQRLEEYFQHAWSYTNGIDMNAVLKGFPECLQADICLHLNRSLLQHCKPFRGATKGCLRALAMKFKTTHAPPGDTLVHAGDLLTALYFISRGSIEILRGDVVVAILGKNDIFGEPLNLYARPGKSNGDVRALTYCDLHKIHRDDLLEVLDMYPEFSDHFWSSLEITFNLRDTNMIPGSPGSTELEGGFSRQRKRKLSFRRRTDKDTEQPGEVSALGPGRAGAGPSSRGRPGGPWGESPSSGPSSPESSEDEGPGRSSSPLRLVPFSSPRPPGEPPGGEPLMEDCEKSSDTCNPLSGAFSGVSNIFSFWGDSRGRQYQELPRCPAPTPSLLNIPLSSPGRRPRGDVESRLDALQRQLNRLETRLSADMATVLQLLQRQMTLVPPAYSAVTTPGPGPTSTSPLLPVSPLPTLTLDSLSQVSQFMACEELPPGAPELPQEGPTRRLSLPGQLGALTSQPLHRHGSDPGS
Protocol: (§3) Binding to the human ether-a-go-go potassium channel (hERG) expressed in HEK293 cells by displacement of 1.5 nM [3H]-astemizole. Each result represents the average of displacement binding experiments done in duplicate at 10 uM of the test compound. Percent displacement of 0.25 nM [3H]-prazosin from Wistar rat brain membranes. Each result represents the average of displacement binding experiments done in duplicate at 3 μM of the test compound.

α1-Adrenergic = α1-Adrenergic binding, displacement of [3H]-prazosin from brain membranes; conditions: 3 μM test compound, 0.25 nM [3H]-prazosin, Wistar rat brain membranes, duplicate
Protocol: as §3

[4] = target: GluN1/GluN2A subtype of NMDA receptors (Rattus norvegicus, UniProt Q00959); experiment: NMDA receptor subunit selectivity, GluN1/GluN2A in Xenopus oocytes; type: cell-based; conditions: 2 min; 10 μM antagonist with 50 μM glutamate and 30 μM glycine, two min; agonists alone = 100%; read-out: GluN2A % Current Remaining
Protocol: as §1, §2
(§4) GluN1/GluN2A and GluN1/GluN2D subtype of NMDA receptors were expressed in Xenopus laevis as described in Example 13. Here, a 10 μM concentration of the antagonist was perfused with 50 μM glutamate and 30 μM glycine onto the oocyte for two min and the remaining current in the presence of the antagonist was compared to the maximal current obtained with 50 μM glutamate and 30 μM glycine alone (defined as 100%).

[5] = target: GluN1/GluN2D subtype of NMDA receptors (Rattus norvegicus, UniProt Q62645); experiment: NMDA receptor subunit selectivity, GluN1/GluN2D in Xenopus oocytes; type: cell-based; conditions: 2 min; 10 μM antagonist with 50 μM glutamate and 30 μM glycine, two min; agonists alone = 100%; read-out: GluN2D % Current Remaining
Protocol: as §1, §2, §4

[6] = target: GluN1/GluN2B-NMDA receptors (Homo sapiens, UniProt Q05586+Q13224); experiment: Noncompetitive block of GluN1/GluN2B-NMDA receptors in Xenopus oocytes; type: cell-based; conditions: 0.1 μM compound 24; increasing glutamate (30 μM glycine) or increasing glycine (30 μM glutamate)
Protocol: Results shown are the mean±SEM of 7 (panel A) or 6 (panel B) oocytes.
Stage V and VI oocytes were surgically removed from the ovaries of large, well-fed and healthy Xenopus laevis anesthetized with 3-amino-benzoic acid ethyl ester (3 gm/l). Clusters of isolated oocytes were incubated with 292 U/ml Worthington (Freehold, N.J.) type IV collagenase or 1.3 mg/ml collagenase (Life Technologies, Gaithersburg, Md.; 17018-029) for 2 hr in Ca^2+-free solution comprised of (in mM) 115 NaCl, 2.5 KCl, and 10 HEPES, pH 7.5, with slow agitation to remove the follicular cell layer. Oocytes were then washed in the same solution supplemented with 1.8 mM CaCl2 and maintained in Barth's solution comprised of (in mM): 88 NaCl, 1 KCl, 2.4 NaHCO3, 10 HEPES, 0.82 MgSO4, 0.33 Ca(NO3)2, and 0.91 CaCl2 and supplemented with 100 μg/ml gentamycin, 10 μg/ml streptomycin, and 10 μg/ml penicillin. […]
Two electrode voltage-clamp recordings were made 2-7 days post-injection. […] Oocytes were recorded under voltage clamp at −40 mV. […] The baseline leak current at −40 mV was measured before and after recording, and the full recording linearly corrected for any change in leak current. The level of inhibition by applied experimental compounds was expressed as a percent of the initial glutamate response, and averaged together across oocytes from multiple experiments. […]

[7] = pH 6.9, 50 μM glutamate, read-out: Human pH 6.9 IC50
[8] = pH 7.4, 50 μM glutamate, read-out: Human pH 7.4 IC50

SMILES	Human pH Boost Ratio (IC50 pH 7.6/IC50 pH 6.9) (GluN1/GluN2B receptors [1])	IC50 (GluN1/GluN2B receptors [1]; [7]) [nM]	IC50 (GluN1/GluN2B receptors [1]; [8]) [nM]	IC50 (GluN1/GluN2B receptors [2]) [nM]	α1-Adrenergic binding % Displacement @ 3 μM (α1-Adrenergic) [%]	remaining activity at 10 µM [4] [%]	remaining activity at 10 µM [5] [%]	Block on increasing glutamate and increasing glycine [6]	hERG Binding % Displacement @ 10 μM [3] [%]
O=C1CCc2cc(OCC3CCN(C(=O)/C=C/c4ccc(Cl)c(Cl)c4)CC3)ccc2N1 [Compound 6, (E)-6-((1-(3-(3,4-dichlorophenyl)acryloyl)piperidin-4-yl)methoxy)-3,4-dihydroquinolin-2(1H)-one]	1.1	886	1640	1270	28	103	101		85
O=C1CCc2cc(OCC3CN(C(=O)Nc4ccc(Cl)c(Cl)c4)C3)ccc2N1 [Compound 23, N-(3,4-dichlorophenyl)-3-(((2-oxo-1,2,3,4-tetrahydroquinolin-6-yl)oxy)methyl)azetidine-1-carboxamide]	3.0	19	41	53	25	94.6	87.6		60
O=C1CCc2cc(OCC3CN(C(=O)Nc4ccc(C(F)(F)F)cc4)C3)ccc2N1 [Compound 24, 3-(((2-oxo-1,2,3,4-tetrahydroquinolin-6-yl)oxy)methyl)-N-(4-(trifluoromethyl)phenyl)azetidine-1-carboxamide]	3.6	27	74	54	12	94.2	84.5	cannot overcome the block	68
O=C1CCc2cc(OCC3CN(C(=O)n4ccnc4)C3)ccc2N1 [Compound 26, 6-((1-(1H-imidazole-1-carbonyl)azetidin-3-yl)methoxy)-3,4-dihydroquinolin-2(1H)-one]		> 30000	> 10000	6100	<1	102	94.9		<1
O=C(Nc1ccc(Cl)cc1)N1CCC(COc2ccc(O)cc2)CC1 [Compound 33]	1.8	740				111	104		
O=C(Nc1ccc(Cl)c(Cl)c1)N1CCC(COc2ccc(O)cc2)CC1 [Compound 35, N-(3,4-dichlorophenyl)-4-((4-hydroxyphenoxy)methyl)-piperidine-1-carboxamide]	1.2	764				104	104		

More lines, main results first:

Human pH Boost Ratio (IC50 pH 7.6/IC50 pH 6.9) (GluN1/GluN2B receptors [1])	IC50 (GluN1/GluN2B receptors [1]; [7]) [nM]	IC50 (GluN1/GluN2B receptors [1]; [8]) [nM]	IC50 (GluN1/GluN2B receptors [2]) [nM]	α1-Adrenergic binding % Displacement @ 3 μM (α1-Adrenergic) [%]	remaining activity at 10 µM [4] [%]	remaining activity at 10 µM [5] [%]	Block on increasing glutamate and increasing glycine [6]	SMILES	hERG Binding % Displacement @ 10 μM [3] [%]
1.4	589	868	837	16	111	104		O=C1CCc2cc(OCC3CCN(C(=O)OCc4ccc(Cl)cc4)CC3)ccc2N1 [Compound 11, 4-chlorobenzyl 4-(((2-oxo-1,2,3,4-tetrahydroquinolin-6-yl)oxy)methyl)piperidine-1-carboxylate]	56
2.0	283	468	339	16	105	106		O=C1CCc2cc(OCC3CCN(C(=O)Nc4ccc(Cl)cc4)CC3)ccc2N1 [Compound 13, N-(4-chlorophenyl)-4-(((2-oxo-1,2,3,4-tetrahydroquinolin-6-yl)oxy)methyl)piperidine-1-carboxamide]	37
8.6	490	2000	3200	13	96.3	101		O=C1CCc2cc(OCC3CCN(C(=O)Cc4ccc(Cl)cc4)CC3)ccc2N1 [Compound 15, 6-((1-(2-(4-chlorophenyl)acetyl)piperidin-4-yl)methoxy)-3,4-dihydroquinolin-2(1H)-one]	18
2.0	237	517	359	7	98.7	93.9		O=C1CCc2cc(OCC3CCN(C(=O)Nc4ccc(C(F)(F)F)cc4)CC3)ccc2N1 [Compound 17, 4-(((2-oxo-1,2,3,4-tetrahydroquinolin-6-yl)oxy)methyl)-N-(4-(trifluoromethyl)phenyl)piperidine-1-carboxamide]	75
1.7	103	170	166	2	102	89.2		O=C1CCc2cc(OCC3CN(C(=O)Nc4ccc(Cl)cc4)C3)ccc2N1 [Compound 21, N-(4-chlorophenyl)-3-(((2-oxo-1,2,3,4-tetrahydroquinolin-6-yl)oxy)methyl)azetidine-1-carboxamide]	25
3.5	2300	3500	4900	12	102	94.5		O=C1CCc2cc(OCC3CN(C(=O)NCc4ccc(Cl)cc4)C3)ccc2N1 [Compound 28, N-(4-chlorobenzyl)-3-(((2-oxo-1,2,3,4-tetrahydroquinolin-6-yl)oxy)methyl)azetidine-1-carboxamide]	27
